Data as given in patent US20050113579A1, “Naphthalimide synthesis including amonafide synthesis and pharmaceutical preparations thereof” (ChemGenex Therapeutics, Inc., priority 2002, published 2005).
Where a name gives a salt, the structure may show the parent alone.

Key:
[1] = free base; background statement; cited from earlier work
physchem = type: physicochemical
Protocol: Precipitation occurs as pH increases above 6.5. Solubility is about 1 mg/mL at pH 9 and 0.05 mg/mL at pH 11.

[2] = Titration with sodium hydroxide; type: physicochemical
Protocol: 561 mg amonafide dihydrochloride (1.57 mmol) was dissolved in 10 mL water to yield a clear red solution with pH at 1.2. With constant stirring, 1N NaOH solution was added. Solution remained clear until pH greater than 6.7. As shown in the titration curve below, 3.3 mmol NaOH was used to neutralize amonafide dihydrochloride in the solution. The calculated mol ratio of amonafide to NaOH was 1:2. [drawing]

[3] = Osmolality of the product; type: physicochemical
[4] = Solubility in water (general statements); type: physicochemical; details: general statement

SMILES: CN(C)CCN1C(=O)c2cccc3cc(N)cc(c23)C1=O [Amonafide, 5-amino-2-[(dimethylamine)ethyl]-1H-benz[de-]isoquinoline-1,3-(2H)-dione]
- solubility in water [1]: very poorly soluble

SMILES: CN(C)CCN1C(=O)c2cccc3cc(N)cc(c23)C1=O [amonafide dihydrochloride]
- pH above which precipitation occurs (physchem; as pH increases): above 6.5
- solubility (physchem; pH 1, water): > 250000 µg/mL
- solubility (physchem; pH 9, aqueous buffer): ~1000 µg/mL
- solubility (physchem; pH 11, aqueous buffer): 50 µg/mL
- pH of solution ([2]; 561 mg (1.57 mmol) dissolved in 10 mL water, clear red solution): 1.2
- pH until which solution remained clear ([2]; 1N NaOH added with constant stirring): greater than 6.7
- osmolality [3]: equivalent to 0.9% sodium chloride solution
- solubility in water compared to monohydrochloride salt [4]: more soluble in water
